Reference: patent publication US6855802B1, “Mutated peptide compounds, derived from hsp70, useful in cancer immunotherapy” (Institut Gustave Roussy, priority 1998, dated 2005)
Values belong to the molecule of their own block, whether it stands above or below them.

Legend:
[1] = tested on: autologous cell line transformed with EBV / 11C2 CTL; assay: Peptide recognition assay: chromium release, lysis by 11C2 CTL of peptide-incubated autologous EBV-transformed cells; type: cell-based, human; settings: for EC50: 11C2 CTL, E/T 31/1, 51Cr-labeled autologous EBV-transformed cells incubated 1 hour with peptide, 4 h release, read-out: maximum half-lysis (peptide concentration); for recognition by 11C2 CTL: peptides carrying the HLA-A*0201 binding motif, 18 peptides assayed
Experimental: 2000 cells transformed with EBV and labeled with ^51Cr were incubated for 1 hour in the presence of the indicated hsp70-2 peptides (SEQ ID NOS. 2, 7, 1, and 8) at multiple concentrations. The 11C2 CTL was then added at an effector/target ratio (E/T) of 31/1. Chromium release was measured 4 hours later. The asterisks indicate the mutated amino acids.
The cytotoxicity assays were carried out using the standard 4-hour chromium release assay, as described above, Angevin et al, (1997). In summary, 2×10^3 51Cr-labeled target cells were incubated for 4 hours at 37° C., with the effector cells at various E/T ratios, in a final volume of 200 μl. With regard to lysis inhibition by the mAbs, the target cells were preincubated for two hours in the presence of saturating concentrations of mAb, before adding the effector cells. At the end of the incubation, 40 μl of supernatant were transferred to Lumaplate 96 solid scintillation plates (Packard Instruments, Meriden, Conn.), were dried overnight and counted in a beta-radioactivity counter (Packard Instruments).
In the screening assay, the peptides used were synthesized by “PepSet technology” (Chiron Technologies, Suresnes, France). For the functional assays, the peptides were synthesized on solid phase using F-moc (temporary NH2-terminal protection), and were purified by preparative HPLC. […] The lyophilized peptides were dissolved in […] in water, and conserved at −20° C. The peptides were used in a chromium release assay. 2000 autologous cells transformed with EBV, and labeled with ^51Cr, were incubated for 1 hour at 37° C. on 96-well plates, with diverse concentrations of peptides, before adding 11C2 CTLs.

[2] = tested on: CD8+ cells from HLA-A2-positive donors; assay: Elispot-IFNγ assay with CD8+ cells and peptide-loaded T2 cells; type: cell-based, human; settings: interferon gamma secretion, no in vitro culturing or cytokines
HLA-A2 (HLA-A*0201) = target: T1, HLA-A2 (HLA-A*0201) (human); assay: T2 cell HLA-A2 up-regulation, flow cytometry with mAb MA2.1
T1 construct: whole, on cells; also called HLA-A2.1
Experimental: T2 cells were incubated at 26° C. for 16 hours in serum-free medium, with or without peptide at a concentration of 20 μm. Next, the peptides (SEQ ID NOS. 2, 7, 1, and 8) were again added, and the cells were incubated at 37° C. […] The amino acid sequences of the peptides are represented. The mutated amino acid is represented by an asterisk.

Molecule: SLFEGIDIYT [SEQ ID NO: 2, mutated hsp70-2 decapeptide 286-295 carrying the mutant isoleucine residue at position 8]
EC50 [1]: 0.05 nM | recognition by 11C2 CTL [1]: recognized | induction of human CD8 lymphocytes from healthy HLA-A2+ individuals [2]: possible to induce

Molecule: wild-type nonapeptide 286-294: wild-type hsp70-2 nonapeptide, amino acids 286-294 (SLFEGIDFY; listed as Homo sapiens) [reference compound]
recognition by 11C2 CTL [1]: not

Molecule: SLFEGIDIY [SEQ ID NO: 1, mutated hsp70-2 nonapeptide, amino acids 286 to 294, isoleucine at position 293]
EC50 [1]: 500 nM | recognition by 11C2 CTL [1]: recognized | induction of human CD8 lymphocytes from healthy HLA-A2+ individuals [2]: possible to induce

Molecule: SLFEGIDFYT [SEQ ID NO: 7, wild-type hsp70-2 decapeptide 286-295, reference compound]
EC50 [1]: 50 nM | recognition by 11C2 CTL [1]: recognizes

binding result (HLA-A2 (HLA-A*0201)): binds
Molecule: SLFEGIDFY (2, 7, 1 and 8) [wild-type hsp70-2 nonapeptide 286-294]

binding result (HLA-A2 (HLA-A*0201)): binds
B1: mutated hsp70-2 nonapeptide 286-294 SLFEGIDIY (peptide)
peptide: SLFEGIDIY
notes: Synthetic peptide; isoleucine at hsp70 position 293

binding result (HLA-A2 (HLA-A*0201)): binds
Molecule: SLFEGIDFYT (Synthetic peptide) [wild-type hsp70-2 decapeptide 286-295 SLFEGIDFYT]

binding result (HLA-A2 (HLA-A*0201)): binds
B2: mutated hsp70-2 decapeptide 286-295 SLFEGIDIYT (peptide)
peptide: SLFEGIDIYT
notes: Synthetic peptide; carries the tumour mutation (isoleucine at hsp70 position 293, position 8 of the peptide)
